Among the data in US10975037B2 (priority 2018, dated 2021) are Kd, inhibition and IC50 values, retold here.

Experiment [1] has as its target human RORγt ligand binding domain (RORγt LBD) (Homo sapiens (Human), UniProt P51449). Put plainly: RORγt ThermoFluor® assay (thermal shift binding). The gist of the method:
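Thermal shift with 0.065 mg/mL RORγt LBD and 60 μM 1,8-ANS in 100 mM Hepes pH 7.0, 10 mM NaCl, 2.5 mM GSH, 0.002% Tween-20.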
A general note: Differential scanning fluorimetry follows unfolding on heating by fluorescence.

Experiment [2] addresses full-length human RORγt (Homo sapiens (Human), UniProt P51449). The experiment can be described thus: RORγt (full-length human) reporter assay, conditions A or B, HEK293T cells. Type of experiment: cell-based. The note with it: for inhibition at 2 µM: 2 μM compound concentration; for IC50: RORγt (FL) Reporter Assay A or B, IC50, HEK293T cells; for inhibition at 1 µM: 1 μM compound concentration (footnote ***); for inhibition at 0.67 µM: 0.67 μM compound concentration (footnote ****). The gist of the method:
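Dual-luciferase read-out was taken after an overnight (16–20 h) compound exposure. Firefly data were scaled between DMSO-only and saturating reference compound, Renilla-normalized, then plotted against concentration for IC50.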
In general terms: A reporter such as luciferase makes a cellular process visible.

The mark [3] stands for this setting: read-out: ThermoFluor® Assay, Kd.
The mark [4] stands for this setting: HEK-293T, read-out: RORγt (FL) Reporter Assay A or B, % inhibition.
The mark [5] stands for this setting: HEK-293T, 0.22 μM compound concentration (footnote *******), read-out: RORγt (FL) Reporter Assay A or B, % inhibition.

Where two headings read alike, the source gives them in different places.

Chain of human RORγt ligand binding domain (RORγt LBD) (P51449 other isoform, or with tags, fused parts or gaps): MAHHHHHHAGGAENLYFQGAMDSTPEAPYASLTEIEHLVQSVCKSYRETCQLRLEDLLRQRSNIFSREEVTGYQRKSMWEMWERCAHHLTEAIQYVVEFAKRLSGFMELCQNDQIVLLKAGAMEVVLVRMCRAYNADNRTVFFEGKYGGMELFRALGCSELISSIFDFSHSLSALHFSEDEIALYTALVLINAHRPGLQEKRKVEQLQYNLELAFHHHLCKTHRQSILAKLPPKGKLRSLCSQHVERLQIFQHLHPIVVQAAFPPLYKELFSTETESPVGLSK
Chain of full-length human RORγt (P51449 other isoform, or with tags, fused parts or gaps): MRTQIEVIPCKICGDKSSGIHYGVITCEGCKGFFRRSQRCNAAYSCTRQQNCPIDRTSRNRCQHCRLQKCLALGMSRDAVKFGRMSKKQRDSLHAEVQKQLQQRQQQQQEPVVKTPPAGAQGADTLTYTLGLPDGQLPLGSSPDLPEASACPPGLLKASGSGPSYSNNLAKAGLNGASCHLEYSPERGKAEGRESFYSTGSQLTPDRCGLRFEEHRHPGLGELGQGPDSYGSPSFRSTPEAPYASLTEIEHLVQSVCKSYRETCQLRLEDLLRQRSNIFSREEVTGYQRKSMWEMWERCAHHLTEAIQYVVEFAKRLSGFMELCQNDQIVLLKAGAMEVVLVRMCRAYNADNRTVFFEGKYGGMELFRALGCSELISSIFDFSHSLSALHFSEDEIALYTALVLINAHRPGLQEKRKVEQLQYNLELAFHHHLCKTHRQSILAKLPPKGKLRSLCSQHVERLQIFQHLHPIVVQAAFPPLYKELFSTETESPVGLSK

For orientation: Kd means the constant that tells how readily two partners part at equilibrium. Broadly, the inhibition is the relative decrease from the control value, in per cent. As usually defined, the IC50 is the point on the concentration scale where inhibition reaches its midpoint. Low readings indicate higher potency, high ones lower potency. Turning to `CCn1nc(C(=O)NC[C@H]2CC[C@H](S(C)(=O)=O)CC2)c(Cl)c1-c1c(F)cc(N[C@H](C)C(F)(F)F)cc1F` [Example 196, 4-Chloro-5-(2,6-difluoro-4-(((R)-1,1,1-trifluoropropan-2-yl)amino)phenyl)-1-ethyl-N-(((1r,4R)-4-(methylsulfonyl)cyclohexyl)methyl)-1H-pyrazole-3-carboxamide], the Kd in experiment [1] (setting [3]) turned out to be 5.4 nM. Also, the inhibition at 2 µM in experiment [2] (setting [4]) turned out to be 101%. Further, the half-maximal inhibitory concentration (IC50) in experiment [2] was found to be 20 nM.

For the compound `CCn1nc(C(=O)NC[C@]2(O)CC[C@@H](S(C)(=O)=O)CC2)c(Cl)c1-c1ccc(CCCC(F)(F)F)cc1OC` [Example 81, 4-Chloro-1-ethyl-N-(((1s,4s)-1-hydroxy-4-(methylsulfonyl)cyclohexyl)methyl)-5-(2-methoxy-4-(4,4,4-trifluorobutyl)phenyl)-1H-pyrazole-3-carboxamide], in experiment [1] (setting [3]), the Kd is 5.1 nM. The inhibition at 2 µM in experiment [2] (setting [4]) stood at 89%. In addition, half-maximal inhibition in experiment [2] (IC50) required 13 nM.

On to `CCn1nc(C(=O)NC[C@@]2(O)CC[C@H](S(C)(=O)=O)C[C@@H]2O)c(Cl)c1-c1ccc(C[C@@H](C)C(F)(F)F)cc1OC(F)F` (stereo in doubt) [Example 138, 4-Chloro-5-(2-(difluoromethoxy)-4-((R*)-3,3,3-trifluoro-2-methylpropyl)phenyl)-N-(((1S*,2S*,4S*)-1,2-dihydroxy-4-(methylsulfonyl)cyclohexyl)methyl)-1-ethyl-1H-pyrazole-3-carboxamide], for which the Kd in experiment [1] (ThermoFluor® Assay, Kd) came to 3.7 nM. For the same compound, the inhibition at 1 µM in experiment [2] (setting [4]) came out at 101%. Also, in experiment [2], half-maximal inhibition (IC50) was put at 12 nM.

Consider `CCn1nc(C(=O)NC[C@H]2CC[C@H](S(C)(=O)=O)CC2)c(C)c1-c1ccc(CCC(F)(F)F)cc1OC` [Example 226, 1-Ethyl-5-(2-methoxy-4-(3,3,3-trifluoropropyl)phenyl)-4-methyl-N-(((1r,4r)-4-(methylsulfonyl)cyclohexyl)methyl)-1H-pyrazole-3-carboxamide], for which the Kd in experiment [1] (setting [3]) is 12 nM. Besides, in experiment [2] (setting [4]), the inhibition at 0.67 µM was determined as 71%. This compound also showed an IC50 in experiment [2] of 38 nM.

Take `CCn1nc(C(=O)NC[C@H]2CC[C@H](S(C)(=O)=O)CC2)c(Cl)c1-c1ccc(N[C@H](C)C(F)(F)F)cc1C(C)C` [Example 204, 4-Chloro-1-ethyl-5-(2-isopropyl-4-(((R)-1,1,1-trifluoropropan-2-yl)amino)phenyl)-N-(((1r,4R)-4-(methylsulfonyl)cyclohexyl)methyl)-1H-pyrazole-3-carboxamide]: the Kd in experiment [1] (setting [3]) worked out at 13 nM. The inhibition at 2 µM in experiment [2] (setting [4]) was 102%. In addition, the IC50 in experiment [2] turned out to be 53 nM.

In the case of `CCn1nc(C(=O)NC[C@H]2CC[C@H](S(C)(=O)=O)CC2)c(Cl)c1-c1ccc(CCCC(F)(F)F)cc1OC(F)F` [Example 76, 4-Chloro-5-(2-(difluoromethoxy)-4-(4,4,4-trifluorobutyl)phenyl)-1-ethyl-N-(((1r,4r)-4-(methylsulfonyl)cyclohexyl)methyl)-1H-pyrazole-3-carboxamide], the equilibrium dissociation constant (Kd) in experiment [1] (setting [3]) came out at 0.28 nM. Also, in experiment [2] (setting [5]), the inhibition at […] was determined as 103%. In experiment [2], this compound yielded an IC50 of 2.1 nM.

For `CCn1nc(C(=O)NC[C@]2(C(N)=O)CC[C@H](S(C)(=O)=O)CC2)c(Cl)c1-c1ccc(N[C@H](C)C(F)(F)F)cc1OC` [Example 34, N-(((1r,4R)-1-carbamoyl-4-(methylsulfonyl)cyclohexyl)methyl)-4-chloro-1-ethyl-5-(2-methoxy-4-(((R)-1,1,1-trifluoropropan-2-yl)amino)phenyl)-1H-pyrazole-3-carboxamide], in experiment [1] (setting [3]), the Kd stood at 3000 nM. In addition, the inhibition at 6 µM in experiment [2] (HEK-293T, read-out: RORγt (FL) Reporter Assay A or B, % inhibition @ 6 μM, 6 μM compound concentration) was 6%. Also, the IC50 in experiment [2] is > 6000 nM.

In the case of `CCn1nc(C(=O)NC[C@@]2(O)CC[C@H](S(C)(=O)=O)C[C@@H]2O)c(C)c1-c1ccc(C[C@@H](C)C(F)(F)F)cc1OC(F)F` (stereo in doubt) [Example 141, 5-(2-(Difluoromethoxy)-4-((R*)-3,3,3-trifluoro-2-methylpropyl)phenyl)-N-(((1S*,2S*,4S*)-1,2-dihydroxy-4-(methylsulfonyl)cyclohexyl)methyl)-1-ethyl-4-methyl-1H-pyrazole-3-carboxamide], the Kd in experiment [1] (ThermoFluor® Assay, Kd) was 5.8 nM. Besides, the inhibition at 3 µM in experiment [2] (HEK-293T, 3 μM compound concentration (footnote *), read-out: RORγt (FL) Reporter Assay A or B, % inhibition) worked out at 84%. The same compound came in with an IC50 in experiment [2] of 85 nM.

As for `CCn1nc(C(=O)NC[C@H]2CC[C@H](S(N)(=O)=O)CC2)c(Cl)c1-c1ccc(CC(C)(C)C(F)(F)F)cc1OC(F)F` [Example 51, 4-Chloro-5-(2-(difluoromethoxy)-4-(3,3,3-trifluoro-2,2-dimethylpropyl)phenyl)-1-ethyl-N-(((1r,4r)-4-sulfamoylcyclohexyl)methyl)-1H-pyrazole-3-carboxamide], the Kd in experiment [1] (ThermoFluor® Assay, Kd) was determined as 0.25 nM. The inhibition at 1 µM in experiment [2] (setting [4]) came to 113%. Moreover, half-maximal inhibition in experiment [2] (IC50) was put at 4.6 nM.

Regarding `CCCn1nc(C(=O)NC[C@]2(O)CC[C@@H](S(C)(=O)=O)CC2)c(Cl)c1-c1ccc(C[C@H](C)C(F)(F)F)cc1OC` (single isomer, unassigned) [Example 40, 4-Chloro-N-(((1s,4R)-1-hydroxy-4-(methylsulfonyl)cyclohexyl)methyl)-5-(2-methoxy-4-((S*)-3,3,3-trifluoro-2-methylpropyl)phenyl)-1-propyl-1H-pyrazole-3-carboxamide], in experiment [1] (ThermoFluor® Assay, Kd), the Kd was determined as 0.71 nM. The inhibition at 2 µM in experiment [2] (setting [4]) was determined as 99%. Inhibition in experiment [2] was half-maximal at 13 nM (IC50).

Take `CCn1nc(C(=O)NC[C@H]2CC[C@H](S(C)(=O)=O)CC2)c(C)c1-c1ccc(CC(C(F)(F)F)C(F)(F)F)cc1OC(F)F` [Example 87, 5-(2-(Difluoromethoxy)-4-(3,3,3-trifluoro-2-(trifluoromethyl)propyl)phenyl)-1-ethyl-4-methyl-N-(((1r,4r)-4-(methylsulfonyl)cyclohexyl)methyl)-1H-pyrazole-3-carboxamide]: the Kd in experiment [1] (setting [3]) is 0.14 nM. The inhibition at 0.07 µM in experiment [2] (HEK-293T, 0.07 μM compound concentration (footnote *********), read-out: RORγt (FL) Reporter Assay A or B, % inhibition) was found to be 100%. This compound showed an IC50 in experiment [2] of 3 nM.

For the compound `CCn1nc(C(=O)NC[C@H]2CC[C@H](S(C)(=O)=O)CC2)c(Cl)c1-c1ccc(OCCC(F)(F)F)cc1OC` [Example 213, 4-Chloro-1-ethyl-5-(2-methoxy-4-(3,3,3-trifluoropropoxy)phenyl)-N-(((1r,4r)-4-(methylsulfonyl)cyclohexyl)methyl)-1H-pyrazole-3-carboxamide], the Kd in experiment [1] (setting [3]) amounted to 34 nM. Also, the inhibition at 2 µM in experiment [2] (setting [4]) was determined as 77%. For the same compound, the IC50 in experiment [2] came to 77 nM.

`CCn1nc(C(=O)NC[C@H]2CC[C@H](S(C)(=O)=O)C[C@@H]2O)c(Cl)c1-c1ccc(CC(C)(C)C(F)(F)F)cc1OC(F)F` (single isomer, unassigned) [Example 21, 4-Chloro-5-(2-(difluoromethoxy)-4-(3,3,3-trifluoro-2,2-dimethylpropyl)phenyl)-1-ethyl-N-(((1R*,2S*,4S*)-2-hydroxy-4-(methylsulfonyl)cyclohexyl)methyl)-H-pyrazole-3-carboxamide]: the Kd in experiment [1] (ThermoFluor® Assay, Kd) is 0.37 nM. The inhibition at […] in experiment [2] (HEK-293T, 0.33 μM compound concentration (footnote *****), read-out: RORγt (FL) Reporter Assay A or B, % inhibition) is 103%. The IC50 in experiment [2] was determined as 3.6 nM.

As to `CCn1nc(C(=O)NC[C@]2(O)CC[C@@H](S(C)(=O)=O)CC2)c(Cl)c1-c1ccc(CCCC(F)(F)F)cc1OC(F)F` [Example 77, 4-Chloro-5-(2-(difluoromethoxy)-4-(4,4,4-trifluorobutyl)phenyl)-1-ethyl-N-(((1s,4s)-1-hydroxy-4-(methylsulfonyl)cyclohexyl)methyl)-1H-pyrazole-3-carboxamide], the Kd in experiment [1] (setting [3]) worked out at 1.2 nM. The inhibition at 2 µM in experiment [2] (setting [4]) amounted to 96%. The same compound yielded an IC50 in experiment [2] of 5.6 nM.

Consider `CCn1nc(C(=O)NC[C@H]2CC[C@H](S(=O)(=O)CC)CC2)c(Cl)c1-c1ccc(CC(C)(C)C(F)(F)F)cc1OC(F)F` [Example 133, 4-Chloro-5-(2-(difluoromethoxy)-4-(3,3,3-trifluoro-2,2-dimethylpropyl)phenyl)-1-ethyl-N-(((1r,4r)-4-(ethylsulfonyl)cyclohexyl)methyl)-1H-pyrazole-3-carboxamide], for which the Kd in experiment [1] (ThermoFluor® Assay, Kd) came to 0.2 nM. Moreover, the inhibition at […] in experiment [2] (setting [5]) stood at 107%. Moreover, the midpoint of inhibition in experiment [2], the IC50, lay at 4.6 nM.

Consider `CCn1nc(C(=O)NC[C@H]2CC[C@H](S(C)(=O)=O)CC2)c(Cl)c1-c1ccc(C[C@H](C)C(F)(F)F)cc1OC(F)F` (single isomer, unassigned) [Example 55, 4-Chloro-5-(2-(difluoromethoxy)-4-((S*)-3,3,3-trifluoro-2-methylpropyl)phenyl)-1-ethyl-N-(((1r,4S)-4-(methylsulfonyl)cyclohexyl)methyl)-1H-pyrazole-3-carboxamide], for which, in experiment [1] (ThermoFluor® Assay, Kd), the Kd turned out to be 0.35 nM. For the same compound, in experiment [2] (HEK-293T, 0.11 μM compound concentration (footnote ********), read-out: RORγt (FL) Reporter Assay A or B, % inhibition), the inhibition at […] was 94%. This compound also returned an IC50 in experiment [2] of 10 nM.

Turning to `CCn1nc(C(=O)NC[C@]2(O)CC[C@@H](S(C)(=O)=O)CC2)c(C)c1-c1ccc(CCCC(F)(F)F)cc1OC` [Example 83, 1-Ethyl-N-(((1s,4s)-1-hydroxy-4-(methylsulfonyl)cyclohexyl)methyl)-5-(2-methoxy-4-(4,4,4-trifluorobutyl)phenyl)-4-methyl-1H-pyrazole-3-carboxamide], the Kd in experiment [1] (setting [3]) is 11 nM. The inhibition at 0.67 µM in experiment [2] (setting [4]) worked out at 87%. Moreover, the IC50 in experiment [2] stood at 33 nM.
